The NIST ThermoML archive (doi:10.1016/j.jct.2018.02.017)

Assays:
[1] = xn = mol fraction of the nth substance listed; conditions: 100 kPa, Liquid, Vibrating tube method
[2] = mn = molality of the nth substance listed, in mol/kg; conditions: 298.15 K, 100 kPa, Liquid, Falling or rolling sphere viscometry
[3] = excess molar enthalpy (molar enthalpy of mixing); xn = mol fraction of the nth substance listed; conditions: 100 kPa, Liquid, Flow calorimetry
[4] = for Triple point temperature: DSC; for mass density: 100 kPa, Liquid, Vibrating tube method
[5] = Molar enthalpy of transition or fusion; conditions: DSC

CCCCn1cc[n+](C)c1.N#CN=C=[N-] [1-butyl-3-methylimidazolium dicyanamide] + O
Conditions	excess molar enthalpy, [3] [kcal/mol]	mass density, [1] [kg/m3]
288.15 K, x1 = 0.000389	5.5e-05	999.45
288.15 K, x1 = 0.000777	0.000139	999.8
288.15 K, x1 = 0.001165	0.000232	1000.14
288.15 K, x1 = 0.001552	0.000335	1000.47
288.15 K, x1 = 0.00194	0.000437	1000.79
288.15 K, x1 = 0.002327	0.000547	1001.11
298.15 K, x1 = 0.000388	0.000198	997.35
298.15 K, x1 = 0.000777	0.000428	997.65
298.15 K, x1 = 0.001165	0.000664	997.93
298.15 K, x1 = 0.001552	0.000903	998.21
298.15 K, x1 = 0.001939	0.00115	998.48
298.15 K, x1 = 0.002327	0.0014	998.75
308.15 K, x1 = 0.000389	0.000351	994.29
308.15 K, x1 = 0.000777	0.000739	994.54
308.15 K, x1 = 0.001165	0.00113	994.79
308.15 K, x1 = 0.001552	0.00152	995.02
308.15 K, x1 = 0.00194	0.0019	995.25
308.15 K, x1 = 0.002327	0.0023	995.48
318.15 K, x1 = 0.000388	0.000511	990.43
318.15 K, x1 = 0.000777	0.00106	990.65
318.15 K, x1 = 0.001165	0.00161	990.85
318.15 K, x1 = 0.001552	0.00215	991.06
318.15 K, x1 = 0.00194	0.00269	991.25
318.15 K, x1 = 0.002328	0.00323	991.45

[2]
Conditions	viscosity [mPa·s]
m1 = 0.01061	0.8936
m1 = 0.01522	0.895
m1 = 0.03084	0.901
m1 = 0.05091	0.9086
m1 = 0.06874	0.9157
m1 = 0.08186	0.9219

CCCCn1cc[n+](C)c1.O=S(=O)([O-])C(F)(F)C(F)F + O
[2]
Conditions	viscosity [mPa·s]
m1 = 0.0216	0.9005
m1 = 0.02818	0.9042
m1 = 0.05086	0.9161
m1 = 0.06272	0.9229
m1 = 0.0705	0.9269
m1 = 0.0811	0.9328

CCCC[N+]1(C)CCCC1.O=S(=O)([O-])C(F)(F)C(F)F + O
[2]
Conditions	viscosity [mPa·s]
m1 = 0.01177	0.8996
m1 = 0.02018	0.9033
m1 = 0.02912	0.9095
m1 = 0.05104	0.9233
m1 = 0.07113	0.934
m1 = 0.09124	0.9463

CCCC[N+]1(C)CCCC1.O=S(=O)([O-])C(F)(F)C(F)F
Conditions	Molar enthalpy of transition or fusion, [5] [kcal/mol]	Triple point temperature, [4] [K]
Crystal 1	2.61	318.5
Crystal 2	3.01	279.3

CCCCn1cc[n+](C)c1.O=S(=O)([O-])C(F)(F)C(F)F
[4]
Conditions	mass density [kg/m3]
288.15 K	1355.49
293.15 K	1351.46
298.15 K	1347.31
303.15 K	1343.19
308.15 K	1339.08
313.15 K	1335.01
318.15 K	1330.9
323.15 K	1326.84
328.15 K	1322.8
333.15 K	1318.77

CCCC[N+]1(C)CCCC1.N#CN=C=[N-] [1-butyl-1-methylpyrrolidinium dicyanamide] + O
Conditions	excess molar enthalpy, [3] [kcal/mol]	mass density, [1] [kg/m3]
288.15 K, x1 = 0.000366	-0.00048	999.262
288.15 K, x1 = 0.000732	-0.000918	999.415
288.15 K, x1 = 0.001097	-0.00134	999.558
288.15 K, x1 = 0.001462	-0.00175	999.693
288.15 K, x1 = 0.001827	-0.00212	999.827
288.15 K, x1 = 0.002192	–	999.945
298.15 K, x1 = 0.000366	-0.00027	997.161
298.15 K, x1 = 0.000732	-0.000516	997.266
298.15 K, x1 = 0.001098	-0.000743	997.365
298.15 K, x1 = 0.001463	-0.000963	997.458
298.15 K, x1 = 0.001828	-0.00117	997.547
298.15 K, x1 = 0.002193	-0.00138	997.632
308.15 K, x1 = 0.000366	-6.21e-05	994.108
308.15 K, x1 = 0.000731	-0.0001	994.175
308.15 K, x1 = 0.001097	-0.000127	994.237
308.15 K, x1 = 0.001462	-0.00016	994.294
308.15 K, x1 = 0.001827	-0.000201	994.349
308.15 K, x1 = 0.002192	-0.00022	994.4
318.15 K, x1 = 0.000366	0.000141	990.258
318.15 K, x1 = 0.000731	0.000301	990.295
318.15 K, x1 = 0.001097	0.000471	990.326
318.15 K, x1 = 0.001462	0.000643	990.353
318.15 K, x1 = 0.001826	0.00082	990.377
318.15 K, x1 = 0.002192	0.000997	990.398

[2]
Conditions	viscosity [mPa·s]
m1 = 0.01007	0.8956
m1 = 0.01538	0.8983
m1 = 0.03088	0.9043
m1 = 0.04839	0.9119
m1 = 0.0703	0.921
m1 = 0.09073	0.9308

CCCCn1cc[n+](C)c1.N#CN=C=[N-] [1-butyl-3-methylimidazolium dicyanamide]
[4]
Conditions	mass density [kg/m3]
288.15 K	1065.64
293.15 K	1062.04
298.15 K	1059.22
303.15 K	1056.04
308.15 K	1052.88
313.15 K	1049.74
318.15 K	1046.63
323.15 K	1043.5
328.15 K	1040.4
333.15 K	1037.38

CCCC[N+]1(C)CCCC1.N#CN=C=[N-] [1-butyl-1-methylpyrrolidinium dicyanamide]
[4]
Conditions	mass density [kg/m3]
288.15 K	1019.08
293.15 K	1016.25
298.15 K	1013.43
303.15 K	1010.62
308.15 K	1007.83
313.15 K	1005.05
318.15 K	1002.29
